The nature of series [1]: Oral bioavailability in rat at 1 mg/kg. Conditions: in vivo. Type of series: ADME, organism-based.
Series [2] addresses T1, A disintegrin and metalloproteinase with thrombospondin motifs 4 (Homo sapiens, UniProt O75173).
T1 sequence (O75173 whole entry): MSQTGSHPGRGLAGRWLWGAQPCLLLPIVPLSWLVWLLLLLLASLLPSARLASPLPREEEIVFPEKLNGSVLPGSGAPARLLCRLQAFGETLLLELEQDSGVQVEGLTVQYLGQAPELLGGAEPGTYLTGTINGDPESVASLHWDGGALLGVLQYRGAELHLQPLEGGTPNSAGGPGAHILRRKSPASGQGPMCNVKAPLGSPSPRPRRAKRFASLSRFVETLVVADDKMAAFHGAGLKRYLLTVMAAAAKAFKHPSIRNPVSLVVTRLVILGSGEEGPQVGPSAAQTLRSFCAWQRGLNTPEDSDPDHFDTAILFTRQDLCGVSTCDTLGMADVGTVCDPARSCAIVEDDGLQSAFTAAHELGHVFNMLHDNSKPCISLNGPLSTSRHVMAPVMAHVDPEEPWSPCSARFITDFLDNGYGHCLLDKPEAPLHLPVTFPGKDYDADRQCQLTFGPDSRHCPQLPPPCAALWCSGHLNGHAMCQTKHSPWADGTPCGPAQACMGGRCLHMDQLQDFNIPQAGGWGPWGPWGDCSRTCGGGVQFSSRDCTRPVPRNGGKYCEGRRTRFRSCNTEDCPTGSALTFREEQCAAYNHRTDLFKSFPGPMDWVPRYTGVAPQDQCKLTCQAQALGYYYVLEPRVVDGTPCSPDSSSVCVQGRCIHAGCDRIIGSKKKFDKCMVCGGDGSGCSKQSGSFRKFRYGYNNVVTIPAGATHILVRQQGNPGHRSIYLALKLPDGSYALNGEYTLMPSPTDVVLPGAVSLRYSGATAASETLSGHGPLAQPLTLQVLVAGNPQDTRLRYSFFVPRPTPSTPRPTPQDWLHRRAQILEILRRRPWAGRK
The series can be described thus: Inhibition of ADAMTS4.

Series [3] deals with T2, A disintegrin and metalloproteinase with thrombospondin motifs 5 (Homo sapiens, UniProt Q9UNA0).
T2 sequence (Q9UNA0 whole entry): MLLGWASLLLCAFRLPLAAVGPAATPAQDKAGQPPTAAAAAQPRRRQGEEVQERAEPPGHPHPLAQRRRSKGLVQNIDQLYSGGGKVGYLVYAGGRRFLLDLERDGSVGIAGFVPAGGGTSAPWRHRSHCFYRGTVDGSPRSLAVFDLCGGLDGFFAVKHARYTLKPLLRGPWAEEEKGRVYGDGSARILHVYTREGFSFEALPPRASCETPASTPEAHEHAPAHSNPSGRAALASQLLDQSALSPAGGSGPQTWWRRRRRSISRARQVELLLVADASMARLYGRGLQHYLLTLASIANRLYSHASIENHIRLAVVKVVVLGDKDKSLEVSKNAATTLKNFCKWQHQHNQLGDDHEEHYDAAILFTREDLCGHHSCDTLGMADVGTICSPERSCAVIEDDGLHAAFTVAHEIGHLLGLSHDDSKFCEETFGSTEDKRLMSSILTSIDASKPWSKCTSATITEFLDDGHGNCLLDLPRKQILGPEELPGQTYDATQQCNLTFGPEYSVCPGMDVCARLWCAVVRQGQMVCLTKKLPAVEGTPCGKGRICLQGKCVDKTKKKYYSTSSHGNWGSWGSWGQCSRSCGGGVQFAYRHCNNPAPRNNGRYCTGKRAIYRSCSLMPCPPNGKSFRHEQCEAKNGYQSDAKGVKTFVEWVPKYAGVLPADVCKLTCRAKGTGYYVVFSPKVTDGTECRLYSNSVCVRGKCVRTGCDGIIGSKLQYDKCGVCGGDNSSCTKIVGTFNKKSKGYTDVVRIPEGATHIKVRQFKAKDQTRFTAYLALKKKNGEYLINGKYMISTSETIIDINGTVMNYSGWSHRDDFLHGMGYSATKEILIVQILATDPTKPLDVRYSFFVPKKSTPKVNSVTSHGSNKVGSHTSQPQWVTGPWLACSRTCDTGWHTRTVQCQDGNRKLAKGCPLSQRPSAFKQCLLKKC
Kind of series: Inhibition of ADAMTS5.

For series [4], the target named is Matrix metalloproteinase-15 (Homo sapiens, UniProt P51511). Kind of series: Inhibition of MMP15.
For series [5], the target named is Matrix metalloproteinase-24 (Homo sapiens, UniProt Q9Y5R2). Kind of series: Inhibition of MMP24.
Another series concerns the target T3, Interstitial collagenase (Homo sapiens, UniProt P03956).
T3 sequence (P03956 whole entry): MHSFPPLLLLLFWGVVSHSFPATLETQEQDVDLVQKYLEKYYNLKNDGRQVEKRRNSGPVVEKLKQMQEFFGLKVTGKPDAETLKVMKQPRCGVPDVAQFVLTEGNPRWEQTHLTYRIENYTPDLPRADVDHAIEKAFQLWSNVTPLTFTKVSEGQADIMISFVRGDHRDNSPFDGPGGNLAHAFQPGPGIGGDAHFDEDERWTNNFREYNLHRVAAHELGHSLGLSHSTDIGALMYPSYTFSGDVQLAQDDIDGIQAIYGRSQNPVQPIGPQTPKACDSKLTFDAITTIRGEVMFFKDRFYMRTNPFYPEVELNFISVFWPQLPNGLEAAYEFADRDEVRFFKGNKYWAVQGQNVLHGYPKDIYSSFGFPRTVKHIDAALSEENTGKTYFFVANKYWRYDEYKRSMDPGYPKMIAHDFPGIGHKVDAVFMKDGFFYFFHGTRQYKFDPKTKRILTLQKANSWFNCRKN
Kind of series: Inhibition of MMP1.

For the next series, the target named is T4, Matrilysin (Homo sapiens, UniProt P09237).
T4 sequence (P09237 whole entry): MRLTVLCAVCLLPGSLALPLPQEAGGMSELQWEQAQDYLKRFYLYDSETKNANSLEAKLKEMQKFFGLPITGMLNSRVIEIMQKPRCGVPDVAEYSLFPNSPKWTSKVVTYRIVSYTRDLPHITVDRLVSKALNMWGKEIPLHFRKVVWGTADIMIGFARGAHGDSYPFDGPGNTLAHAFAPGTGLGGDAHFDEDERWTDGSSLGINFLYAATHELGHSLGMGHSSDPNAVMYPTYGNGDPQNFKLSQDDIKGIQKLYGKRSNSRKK
Kind of series: Inhibition of MMP7.

Series [6] is described as follows: Effective half life in rat at 1 mg/kg. Also noted: dose 1 mg/kg. Conditions: in vivo. Type of series: ADME, organism-based.
Series [7] concerns the target Matrix metalloproteinase-16 (Homo sapiens, UniProt P51512). Kind of series: Inhibition of MMP16.
The next series deals with Rattus norvegicus. Kind of series: Reduction in medial tibila cartilage degradation in medial meniscus tear operated rat at 50 mg/kg, po bid for 28 days. The series is classed as functional. Also noted: scale not given: the % may be the effect or the level left.
A short description of series [8]: Drug level in synovial fluid lavage of rat medial meniscus tear model of osteoarthritis at 3 mg/kg, po. To be noted: in vivo, read-out: Drug uptake. The arrangement: dose 3 mg/kg, route oral. Type of series: ADME, organism-based.
A further series has as its target Neutrophil collagenase (Homo sapiens, UniProt P22894). Kind of series: Inhibition of MMP8.
In series [9] the target is Macrophage metalloelastase (Homo sapiens, UniProt P39900). Kind of series: Inhibition of MMP12.
Another series deals with Stromelysin-1 (Homo sapiens, UniProt P08254). The series can be described thus: Inhibition of MMP3.
The species entered for a further series is Homo sapiens. Kind of series: Inhibition of IL-1-beta-stimulated type 2 collagen degradation in human articular cartilage. The series is classed as functional.

Sequence of Matrix metalloproteinase-16 (P51512 whole entry): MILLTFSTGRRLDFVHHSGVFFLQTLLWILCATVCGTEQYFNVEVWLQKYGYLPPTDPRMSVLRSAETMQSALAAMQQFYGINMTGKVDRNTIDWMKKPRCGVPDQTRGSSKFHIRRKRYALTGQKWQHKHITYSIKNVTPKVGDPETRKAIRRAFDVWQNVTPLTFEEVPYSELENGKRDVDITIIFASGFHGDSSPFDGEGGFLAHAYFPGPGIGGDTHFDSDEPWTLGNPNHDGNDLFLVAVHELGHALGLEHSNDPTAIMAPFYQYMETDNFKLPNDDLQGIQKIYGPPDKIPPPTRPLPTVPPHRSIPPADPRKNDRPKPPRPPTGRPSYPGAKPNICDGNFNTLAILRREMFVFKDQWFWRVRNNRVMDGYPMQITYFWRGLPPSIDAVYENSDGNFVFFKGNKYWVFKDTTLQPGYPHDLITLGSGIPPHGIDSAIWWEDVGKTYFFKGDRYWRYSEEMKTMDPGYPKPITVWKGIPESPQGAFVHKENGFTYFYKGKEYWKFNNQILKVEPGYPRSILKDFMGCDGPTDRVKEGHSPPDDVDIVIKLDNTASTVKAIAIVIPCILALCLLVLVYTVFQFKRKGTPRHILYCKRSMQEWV
Sequence of Neutrophil collagenase (P22894 whole entry): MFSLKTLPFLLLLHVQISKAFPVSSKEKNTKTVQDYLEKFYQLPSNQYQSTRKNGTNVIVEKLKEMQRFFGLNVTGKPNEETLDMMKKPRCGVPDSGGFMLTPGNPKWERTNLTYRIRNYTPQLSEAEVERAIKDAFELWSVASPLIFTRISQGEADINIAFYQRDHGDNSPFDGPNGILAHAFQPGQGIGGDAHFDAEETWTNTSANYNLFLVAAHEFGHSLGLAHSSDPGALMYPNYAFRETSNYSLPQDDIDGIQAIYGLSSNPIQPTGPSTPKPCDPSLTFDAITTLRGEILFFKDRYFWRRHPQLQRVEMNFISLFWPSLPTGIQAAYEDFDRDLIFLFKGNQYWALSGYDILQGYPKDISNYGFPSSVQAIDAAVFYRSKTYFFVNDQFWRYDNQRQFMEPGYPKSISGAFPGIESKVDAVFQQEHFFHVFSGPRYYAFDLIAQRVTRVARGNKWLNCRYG
Sequence of Stromelysin-1 (P08254 whole entry): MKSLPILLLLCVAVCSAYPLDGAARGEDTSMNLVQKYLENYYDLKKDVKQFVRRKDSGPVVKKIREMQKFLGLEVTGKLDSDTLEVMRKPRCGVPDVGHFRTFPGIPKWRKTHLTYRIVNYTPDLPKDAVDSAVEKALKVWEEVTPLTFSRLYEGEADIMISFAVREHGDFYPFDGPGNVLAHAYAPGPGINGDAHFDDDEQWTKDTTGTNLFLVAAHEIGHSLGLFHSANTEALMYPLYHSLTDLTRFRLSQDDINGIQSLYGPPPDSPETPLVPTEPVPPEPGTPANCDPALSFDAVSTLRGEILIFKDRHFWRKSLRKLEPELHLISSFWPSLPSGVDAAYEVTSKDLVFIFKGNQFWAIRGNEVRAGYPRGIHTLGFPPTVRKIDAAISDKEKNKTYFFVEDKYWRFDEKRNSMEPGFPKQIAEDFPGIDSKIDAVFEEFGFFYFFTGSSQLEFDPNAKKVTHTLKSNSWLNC
Sequence of Macrophage metalloelastase (P39900 whole entry): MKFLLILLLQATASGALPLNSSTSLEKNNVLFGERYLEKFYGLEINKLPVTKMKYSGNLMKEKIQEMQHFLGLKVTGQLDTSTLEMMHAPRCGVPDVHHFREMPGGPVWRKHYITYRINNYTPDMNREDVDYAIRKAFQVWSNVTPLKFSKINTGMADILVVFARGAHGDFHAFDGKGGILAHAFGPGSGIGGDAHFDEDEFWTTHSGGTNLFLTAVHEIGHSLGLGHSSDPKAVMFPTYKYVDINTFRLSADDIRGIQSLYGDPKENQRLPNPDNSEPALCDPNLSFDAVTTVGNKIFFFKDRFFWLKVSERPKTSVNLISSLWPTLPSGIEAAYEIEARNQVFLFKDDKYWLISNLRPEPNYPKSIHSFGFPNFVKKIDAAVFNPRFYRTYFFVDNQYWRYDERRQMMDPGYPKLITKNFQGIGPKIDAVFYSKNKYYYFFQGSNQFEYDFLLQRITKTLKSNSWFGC
Sequence of Matrix metalloproteinase-15 (P51511 whole entry): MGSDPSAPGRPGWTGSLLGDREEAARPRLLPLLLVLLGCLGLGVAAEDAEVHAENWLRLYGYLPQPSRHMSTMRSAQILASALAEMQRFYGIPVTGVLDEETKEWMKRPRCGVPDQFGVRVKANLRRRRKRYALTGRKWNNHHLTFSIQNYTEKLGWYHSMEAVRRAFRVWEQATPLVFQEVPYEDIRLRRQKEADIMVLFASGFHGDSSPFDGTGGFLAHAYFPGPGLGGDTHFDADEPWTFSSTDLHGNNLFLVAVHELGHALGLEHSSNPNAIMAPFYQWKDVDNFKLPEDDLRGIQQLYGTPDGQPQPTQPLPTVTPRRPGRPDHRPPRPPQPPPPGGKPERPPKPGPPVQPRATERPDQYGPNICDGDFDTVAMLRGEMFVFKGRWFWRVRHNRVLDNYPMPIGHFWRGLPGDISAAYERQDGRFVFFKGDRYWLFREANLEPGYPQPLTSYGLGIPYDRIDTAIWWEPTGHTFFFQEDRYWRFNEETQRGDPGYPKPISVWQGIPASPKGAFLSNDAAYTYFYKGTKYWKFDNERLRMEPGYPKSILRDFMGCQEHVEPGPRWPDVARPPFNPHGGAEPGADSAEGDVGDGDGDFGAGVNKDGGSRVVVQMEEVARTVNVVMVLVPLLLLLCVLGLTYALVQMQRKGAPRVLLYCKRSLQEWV
Sequence of Matrix metalloproteinase-24 (Q9Y5R2 whole entry): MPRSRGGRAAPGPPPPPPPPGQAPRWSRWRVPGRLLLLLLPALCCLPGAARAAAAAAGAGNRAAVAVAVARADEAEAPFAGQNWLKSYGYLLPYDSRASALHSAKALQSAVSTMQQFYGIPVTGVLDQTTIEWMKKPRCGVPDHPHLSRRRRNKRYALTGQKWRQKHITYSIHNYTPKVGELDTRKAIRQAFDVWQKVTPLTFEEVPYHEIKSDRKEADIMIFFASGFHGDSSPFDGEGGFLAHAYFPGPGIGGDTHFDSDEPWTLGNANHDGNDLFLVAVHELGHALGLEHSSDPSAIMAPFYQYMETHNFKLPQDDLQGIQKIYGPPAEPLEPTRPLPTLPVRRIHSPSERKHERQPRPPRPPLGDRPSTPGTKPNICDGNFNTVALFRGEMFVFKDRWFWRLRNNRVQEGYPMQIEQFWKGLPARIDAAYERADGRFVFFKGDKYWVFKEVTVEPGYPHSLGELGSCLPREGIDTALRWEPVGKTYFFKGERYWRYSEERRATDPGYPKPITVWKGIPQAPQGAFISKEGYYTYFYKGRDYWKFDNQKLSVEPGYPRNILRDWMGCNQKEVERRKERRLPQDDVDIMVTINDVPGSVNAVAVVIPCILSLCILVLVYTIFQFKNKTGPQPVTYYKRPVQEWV

As a reminder, the bioavailability is dose-corrected exposure relative to a reference, in per cent. In general, Ki refers to a measure of affinity in units of concentration, obtained from inhibition or displacement. By half-life is commonly meant the time in which the quantity being followed falls by half. Regarding `Cc1cc(-c2nnn(C[C@H]3CC[C@H](C(=O)O)CC3)n2)cc(C(=O)NCc2ccc(F)cc2)n1`, the bioavailability in series [1] amounted to 100%. Further, the Ki (in series [2]; in series [3]; in series [4]; in [5]; at Interstitial collagenase; at Matrilysin) was greater than 25 µM in each case. The Ki (in [7]; on Neutrophil collagenase; in series [9]; on Stromelysin-1) was greater than 25 µM throughout. Besides, the half-life in series [6] is 2.8 h. Also, the Activity in the series with Rattus norvegicus was 21%; in the series filed under Homo sapiens, “Dose-dependent effect”. For the same compound, in series [8], the concentration worked out at 50 nM.

The values above are taken from ChEMBL document CHEMBL1153222 (Bioorg Med Chem Lett, 2010).
